Key:
[1] = target: Her2 Exon 20 INSYVMA Ba/F3 (Homo sapiens, UniProt P04626, DUP772-775, cells depend on it); experiment: Her2 Exon 20 INSYVMA Ba/F3 CellTiter-Glo; assay type: cell-based; conditions: CellTiter-Glo, 72 h, read-out: Her2 Exon 20 INSYVMA Ba/F3 CTG IC50
Outline: (§1)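 Ba/F3 cells were seeded, left 24 h at 37 °C/5% CO2, then exposed to compound dilutions in DMSO for 72 h. Viability was read as ATP luminescence (CellTiter-Glo) and IC50 fitted from dose–response curves; DMSO and 10 μM staurosporine defined the controls, and plates needed Z′ ≥0.5.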

[2] = Metabolic stability in mouse liver microsomes without cofactor NADPH; assay type: in vitro ADME; conditions: 3 μM test compound, mouse liver microsomes, without NADPH, 50 min, 37° C., LC-MS/MS
Outline: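 Cofactor-free incubation: no NADPH added to mouse liver microsomes, with compound at 3 μM and 37° C. Remaining parent was quantified by LC-MS/MS at time points up to 50 minutes to track depletion.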

HER2 INS YVMA = target: T1, HER2 INS YVMA (Homo sapiens, UniProt P04626, INS775YVMA); experiment: Lance Kinase Activity Assay, HER2 INS YVMA (Her2 Exon 20 INSYVMA Lance); assay type: biochemical; conditions: biochemical Lance assay
T1 construct: purchased DPF
Outline: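 IC50 was fitted to sigmoidal curves of TR-FRET signal (665 and 615 nm emission after 340 nm excitation) from an Eu anti-phospho antibody binding the phosphorylated ULight peptide. The ATP-started reaction ran 1 h at RT and was then quenched with 10 mM EDTA plus antibody for a further 1 h. Compounds were tested as 8-point, 3-fold dilutions.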

EGFR wt = EGFR wt (Homo sapiens, UniProt P00533); experiment: EGFR wt Lance assay; assay type: biochemical
Protocol: (§2) Inhibition is indicated as […] [nM] (“−”=not measured). Compounds having an activity designated as “A” provided an IC50≤100 nM; compounds having an activity designated as “B” provided an 100 nM<IC50≤500 nM; compounds having an activity designated as “C” provided an 500 nM<IC50≤1000 nM; compounds having an activity designated as “D” provided an 1000 nM<IC50≤100000 nM; and compounds having an activity designated as “E” provided an IC50>10000 nM.

EGFR T790ML858R = EGFR T790ML858R (Homo sapiens, UniProt P00533, L858R/T790M); experiment: EGFR T790ML858R Lance assay; assay type: biochemical
Protocol: as §2

[3] = target: EGFR Exon 20 INSNPH Ba/F3 (Homo sapiens, UniProt P00533, DUP771-773, cells depend on it); experiment: EGFR Exon 20 INSNPH Ba/F3 CellTiter-Glo; assay type: cell-based; conditions: CellTiter-Glo, 72 h, read-out: EGFR Exon 20 INSNPH Ba/F3 CTG IC50
Outline: as §1

A431 = A431 CellTiter-Glo; assay type: cell-based; conditions: Homo sapiens, A-431; 72 h compound incubation; read-out: A431 CTG IC50
Outline: (§3)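 Seed cells; incubate 24 h at 37° C., 5% CO2; add compound in DMSO over a concentration range; incubate 72 h; add CellTiter-Glo reagent, stabilise 10 min at room temperature; read luminescence; fit IC50.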

H1975 = H1975 CellTiter-Glo; assay type: cell-based; conditions: Homo sapiens, NCI-H1975; 72 h compound incubation; read-out: H1975 CTG IC50
Outline: as §3

Chain of EGFR Exon 20 INSNPH Ba/F3 (P00533 with tags, fused parts or gaps DUP771-773): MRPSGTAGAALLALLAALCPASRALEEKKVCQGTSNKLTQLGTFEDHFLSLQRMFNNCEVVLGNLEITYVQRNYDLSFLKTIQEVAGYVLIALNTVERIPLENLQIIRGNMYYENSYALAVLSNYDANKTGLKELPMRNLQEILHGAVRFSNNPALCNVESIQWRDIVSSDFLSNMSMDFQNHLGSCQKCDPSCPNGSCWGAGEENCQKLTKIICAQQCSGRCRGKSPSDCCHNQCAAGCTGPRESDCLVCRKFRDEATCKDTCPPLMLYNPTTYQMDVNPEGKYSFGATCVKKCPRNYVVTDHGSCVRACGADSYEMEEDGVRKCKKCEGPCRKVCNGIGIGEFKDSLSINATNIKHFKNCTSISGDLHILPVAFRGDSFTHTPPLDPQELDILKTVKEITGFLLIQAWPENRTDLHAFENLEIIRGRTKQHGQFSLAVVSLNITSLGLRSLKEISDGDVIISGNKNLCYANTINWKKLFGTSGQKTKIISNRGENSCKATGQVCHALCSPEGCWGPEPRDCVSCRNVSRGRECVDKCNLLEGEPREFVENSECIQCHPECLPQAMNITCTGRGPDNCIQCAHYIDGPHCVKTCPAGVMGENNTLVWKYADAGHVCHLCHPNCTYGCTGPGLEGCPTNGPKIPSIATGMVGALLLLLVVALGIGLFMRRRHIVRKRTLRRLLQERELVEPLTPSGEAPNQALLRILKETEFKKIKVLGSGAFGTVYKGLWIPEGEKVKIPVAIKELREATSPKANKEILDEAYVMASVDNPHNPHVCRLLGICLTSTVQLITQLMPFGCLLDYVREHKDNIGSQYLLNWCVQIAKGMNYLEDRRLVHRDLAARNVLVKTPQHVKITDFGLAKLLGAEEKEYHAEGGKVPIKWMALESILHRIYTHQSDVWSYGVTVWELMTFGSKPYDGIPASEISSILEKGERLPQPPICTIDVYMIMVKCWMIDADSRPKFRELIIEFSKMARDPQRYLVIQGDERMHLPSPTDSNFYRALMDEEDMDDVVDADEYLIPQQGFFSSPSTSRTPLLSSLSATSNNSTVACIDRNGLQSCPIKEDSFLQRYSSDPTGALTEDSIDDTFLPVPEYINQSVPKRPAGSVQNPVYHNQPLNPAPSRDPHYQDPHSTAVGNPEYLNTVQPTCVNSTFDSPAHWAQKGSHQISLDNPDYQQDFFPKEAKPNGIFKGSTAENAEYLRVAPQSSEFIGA
Chain of Her2 Exon 20 INSYVMA Ba/F3 (P04626 with tags, fused parts or gaps DUP772-775): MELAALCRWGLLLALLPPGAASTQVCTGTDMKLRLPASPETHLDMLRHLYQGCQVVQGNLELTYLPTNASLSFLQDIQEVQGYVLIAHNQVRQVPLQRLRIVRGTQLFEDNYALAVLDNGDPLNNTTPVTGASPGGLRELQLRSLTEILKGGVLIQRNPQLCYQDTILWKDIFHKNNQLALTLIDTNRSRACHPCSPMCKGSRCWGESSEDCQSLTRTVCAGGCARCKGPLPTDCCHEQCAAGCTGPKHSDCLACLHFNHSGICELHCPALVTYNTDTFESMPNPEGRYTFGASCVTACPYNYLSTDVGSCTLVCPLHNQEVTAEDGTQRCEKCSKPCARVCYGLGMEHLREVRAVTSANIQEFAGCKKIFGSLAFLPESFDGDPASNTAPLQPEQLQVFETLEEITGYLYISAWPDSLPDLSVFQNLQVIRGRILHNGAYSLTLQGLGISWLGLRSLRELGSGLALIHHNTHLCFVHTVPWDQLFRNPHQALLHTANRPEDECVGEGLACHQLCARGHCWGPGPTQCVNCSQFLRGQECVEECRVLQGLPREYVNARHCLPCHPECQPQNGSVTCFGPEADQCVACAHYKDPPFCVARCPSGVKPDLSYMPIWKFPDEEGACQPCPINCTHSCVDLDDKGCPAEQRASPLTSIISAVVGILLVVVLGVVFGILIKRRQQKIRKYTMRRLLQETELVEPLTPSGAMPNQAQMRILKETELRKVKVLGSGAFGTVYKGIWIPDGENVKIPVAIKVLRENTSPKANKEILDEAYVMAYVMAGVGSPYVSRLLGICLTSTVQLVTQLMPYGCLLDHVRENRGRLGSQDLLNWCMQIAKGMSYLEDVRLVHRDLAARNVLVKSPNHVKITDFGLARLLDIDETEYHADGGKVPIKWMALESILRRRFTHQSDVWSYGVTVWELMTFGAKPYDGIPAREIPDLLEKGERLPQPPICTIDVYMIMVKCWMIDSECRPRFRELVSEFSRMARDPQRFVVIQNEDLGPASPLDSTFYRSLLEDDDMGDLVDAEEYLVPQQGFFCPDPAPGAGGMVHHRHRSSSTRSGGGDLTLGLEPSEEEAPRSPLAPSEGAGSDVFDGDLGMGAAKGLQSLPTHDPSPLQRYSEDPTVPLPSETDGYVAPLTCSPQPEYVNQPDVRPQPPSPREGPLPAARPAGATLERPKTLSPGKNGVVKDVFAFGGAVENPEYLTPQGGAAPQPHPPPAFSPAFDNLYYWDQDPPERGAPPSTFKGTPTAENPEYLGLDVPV
Chain of EGFR T790ML858R (P00533 25-1210 T790M/L858R): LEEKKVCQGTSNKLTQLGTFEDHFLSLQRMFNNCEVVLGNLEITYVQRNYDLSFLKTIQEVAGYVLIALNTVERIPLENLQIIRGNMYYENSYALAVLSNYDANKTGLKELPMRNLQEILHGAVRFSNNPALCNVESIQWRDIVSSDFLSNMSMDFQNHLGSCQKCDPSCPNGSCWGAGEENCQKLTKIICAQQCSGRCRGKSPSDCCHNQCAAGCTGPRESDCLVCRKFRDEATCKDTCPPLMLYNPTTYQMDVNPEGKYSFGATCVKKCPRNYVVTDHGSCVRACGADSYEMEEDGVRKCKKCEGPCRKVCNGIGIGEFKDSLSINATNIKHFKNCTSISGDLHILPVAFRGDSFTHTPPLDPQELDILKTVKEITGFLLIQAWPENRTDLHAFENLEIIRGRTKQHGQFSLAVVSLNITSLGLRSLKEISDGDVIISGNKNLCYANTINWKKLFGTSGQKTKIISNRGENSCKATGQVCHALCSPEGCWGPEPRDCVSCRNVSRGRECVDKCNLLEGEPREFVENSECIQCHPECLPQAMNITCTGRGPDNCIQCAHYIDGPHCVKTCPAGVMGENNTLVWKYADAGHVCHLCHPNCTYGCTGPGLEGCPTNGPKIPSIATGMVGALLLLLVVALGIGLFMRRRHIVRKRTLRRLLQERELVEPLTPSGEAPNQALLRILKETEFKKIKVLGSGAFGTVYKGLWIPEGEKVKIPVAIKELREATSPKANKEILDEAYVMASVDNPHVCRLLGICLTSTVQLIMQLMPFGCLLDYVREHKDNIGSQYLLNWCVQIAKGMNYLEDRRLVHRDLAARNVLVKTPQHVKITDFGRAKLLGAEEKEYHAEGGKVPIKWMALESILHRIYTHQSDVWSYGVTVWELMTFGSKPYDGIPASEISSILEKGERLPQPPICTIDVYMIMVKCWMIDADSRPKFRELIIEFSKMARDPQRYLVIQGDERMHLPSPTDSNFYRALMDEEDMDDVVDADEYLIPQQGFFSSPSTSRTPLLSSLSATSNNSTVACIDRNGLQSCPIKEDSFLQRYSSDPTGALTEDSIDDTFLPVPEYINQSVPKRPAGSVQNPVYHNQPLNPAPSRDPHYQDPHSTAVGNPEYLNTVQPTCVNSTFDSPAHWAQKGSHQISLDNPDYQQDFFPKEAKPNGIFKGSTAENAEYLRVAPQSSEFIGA
T1 sequence (P04626 with tags, fused parts or gaps INS775YVMA): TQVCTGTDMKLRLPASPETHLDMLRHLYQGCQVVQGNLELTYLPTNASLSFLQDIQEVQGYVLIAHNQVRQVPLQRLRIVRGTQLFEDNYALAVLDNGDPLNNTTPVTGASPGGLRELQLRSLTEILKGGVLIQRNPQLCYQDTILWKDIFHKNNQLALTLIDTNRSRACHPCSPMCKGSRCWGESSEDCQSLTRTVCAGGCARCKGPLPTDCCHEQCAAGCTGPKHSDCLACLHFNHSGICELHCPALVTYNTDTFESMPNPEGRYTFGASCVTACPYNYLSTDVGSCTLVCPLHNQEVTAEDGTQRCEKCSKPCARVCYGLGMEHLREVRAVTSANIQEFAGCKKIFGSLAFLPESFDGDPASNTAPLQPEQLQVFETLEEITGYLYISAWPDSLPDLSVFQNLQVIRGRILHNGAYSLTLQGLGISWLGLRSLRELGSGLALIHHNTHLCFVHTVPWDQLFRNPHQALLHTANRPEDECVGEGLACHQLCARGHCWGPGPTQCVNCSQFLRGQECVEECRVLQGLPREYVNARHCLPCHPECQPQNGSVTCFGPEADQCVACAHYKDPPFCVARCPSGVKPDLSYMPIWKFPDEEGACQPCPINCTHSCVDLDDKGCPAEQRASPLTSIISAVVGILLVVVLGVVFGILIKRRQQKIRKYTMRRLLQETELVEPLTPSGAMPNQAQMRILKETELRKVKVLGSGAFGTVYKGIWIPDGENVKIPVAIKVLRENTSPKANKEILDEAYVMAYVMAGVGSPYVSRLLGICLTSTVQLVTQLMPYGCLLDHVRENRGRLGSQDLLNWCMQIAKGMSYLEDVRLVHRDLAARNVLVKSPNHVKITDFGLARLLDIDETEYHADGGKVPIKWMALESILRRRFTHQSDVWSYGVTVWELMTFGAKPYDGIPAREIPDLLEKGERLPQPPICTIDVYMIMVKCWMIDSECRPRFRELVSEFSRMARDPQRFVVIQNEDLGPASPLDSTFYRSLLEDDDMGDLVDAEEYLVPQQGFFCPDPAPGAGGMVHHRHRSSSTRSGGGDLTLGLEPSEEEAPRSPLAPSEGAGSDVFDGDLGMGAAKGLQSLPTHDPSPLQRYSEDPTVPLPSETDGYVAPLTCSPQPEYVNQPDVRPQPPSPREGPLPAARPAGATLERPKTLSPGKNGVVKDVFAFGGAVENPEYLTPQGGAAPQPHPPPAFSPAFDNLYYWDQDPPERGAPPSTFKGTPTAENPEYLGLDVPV

| Compound | GI50 [1] | Stability in presence of mouse liver microsomes without cofactor NADPH [% remaining after 50 min] [2] | IC50 (HER2 INS YVMA) | IC50 (EGFR wt) | IC50 (EGFR T790ML858R) | GI50 [3] | IC50 (A431) | IC50 (H1975) |
| --- | --- | --- | --- | --- | --- | --- | --- | --- |
| C=CC(=O)Nc1cc(-c2c(-c3cccc(CN4CCOCC4)c3)[nH]c3ncccc23)ccc1C [Example 82, N-(2-methyl-5-(2-(3-(morpholinomethyl)phenyl)-1H-pyrrolo[2,3-b]pyridin-3-yl)phenyl)acrylamide] | 1000 to 10000 nM | 97 % remaining after 50 min | 1000 to 10000 nM | 100 to 500 nM | ≤ 100 nM | 1000 to 10000 nM | 1000 to 100000 nM | 500 to 1000 nM |
| C=CC(=O)Nc1cc(-c2c(-c3ccc(CN4CCN(C)CC4)cc3)[nH]c3ncc(C(=O)OC(C)C)cc23)ccc1C [Example 160, isopropyl 3-(3-acrylamido-4-methylphenyl)-2-(4-((4-methylpiperazin-1-yl)methyl)phenyl)-1H-pyrrolo[2,3-b]pyridine-5-carboxylate] | 100 to 500 nM | >99 % remaining after 50 min | ≤ 100 nM | ≤ 100 nM | ≤ 100 nM | 100 to 500 nM | 1000 to 100000 nM | 100 to 500 nM |
| C=CC(=O)Nc1cc(-c2c(-c3ccc(N4CCN(C)CC4)cc3)[nH]c3ncc(Cl)c(C)c23)ccc1C [Example 155] | 500 to 1000 nM | >99 % remaining after 50 min | ≤ 100 nM | ≤ 100 nM | ≤ 100 nM | 100 to 500 nM | 1000 to 100000 nM | ≤ 100 nM |
| Cc1ccc(-c2c(-c3ccc(N4CCN(C)CC4)cc3)[nH]c3nccc(Cl)c23)cc1NC(=O)CCl [Example 146, 2-chloro-N-(5-(4-chloro-2-(4-(4-methylpiperazin-1-yl)phenyl)-1H-pyrrolo[2,3-b]pyridin-3-yl)-2-methylphenyl)acetamide 2,2,2-trifluoroacetate] | 100 to 500 nM | 9 % remaining after 50 min | ≤ 100 nM | ≤ 100 nM | ≤ 100 nM | 100 to 500 nM | 100 to 500 nM | ≤ 100 nM |
| C=CC(=O)Nc1cc(-c2c(-c3ccc(N(C)CCN(C)C)cc3)[nH]c3nccc(Cl)c23)ccc1C [Example 43, N-(5-(4-chloro-2-(4-((2-(dimethylamino)ethyl)(methyl)amino)phenyl)-1H-pyrrolo[2,3-b]pyridin-3-yl)-2-methylphenyl)acrylamide] | ≤ 100 nM | >99 % remaining after 50 min | ≤ 100 nM | ≤ 100 nM | ≤ 100 nM | ≤ 100 nM | 100 to 500 nM | ≤ 100 nM |
| C=CC(=O)Nc1cc(-c2c(-c3ccc(N(C)CCN(C)C)cc3)[nH]c3ncc(C(=O)OC(C)C)cc23)cc(F)c1C [Example 172, isopropyl 3-(3-acrylamido-5-fluoro-4-methylphenyl)-2-(4-((2-(dimethylamino)ethyl)(methyl)amino)phenyl)-1H-pyrrolo[2,3-b]pyridine-5-carboxylate] | 100 to 500 nM | >99 % remaining after 50 min | ≤ 100 nM | ≤ 100 nM | ≤ 100 nM | 100 to 500 nM | 1000 to 100000 nM | 100 to 500 nM |
| C=CC(=O)Nc1cc(-c2c(-c3cccc(CN4CCN(C(C)=O)CC4)c3)[nH]c3ncccc23)ccc1C [Example 81, N-(5-(2-(3-((4-acetylpiperazin-1-yl)methyl)phenyl)-1H-pyrrolo[2,3-b]pyridin-3-yl)-2-methylphenyl)acrylamide] | 1000 to 10000 nM | 80 % remaining after 50 min | 1000 to 10000 nM | 100 to 500 nM | ≤ 100 nM | 1000 to 10000 nM | 1000 to 100000 nM | 1000 to 100000 nM |
| C=CC(=O)Nc1cc(-c2c(-c3ccc(N4CCN(C)CC4)cc3)[nH]c3ncc(C(=O)OC)cc23)ccc1C [Example 134, Methyl 3-(3-acrylamido-4-methylphenyl)-2-(4-(4-methylpiperazin-1-yl)phenyl)-1H-pyrrolo[2,3-b]pyridine-5-carboxylate 2,2,2-trifluoroacetate] | 100 to 500 nM | >99 % remaining after 50 min | ≤ 100 nM | ≤ 100 nM | ≤ 100 nM | 100 to 500 nM | 1000 to 100000 nM | 100 to 500 nM |
| C=CC(=O)N1CCc2ccc(-c3c(-c4ccc(CN5CCN(C)CC5)cc4)[nH]c4nccc(OCC)c34)cc21 [Example 108, 1-(6-(4-ethoxy-2-(4-((4-methylpiperazin-1-yl)methyl)phenyl)-1H-pyrrolo[2,3-b]pyridin-3-yl)indolin-1-yl)prop-2-en-1-one] | 100 to 500 nM | 86 % remaining after 50 min | ≤ 100 nM | ≤ 100 nM | ≤ 100 nM | 100 to 500 nM | 500 to 1000 nM | ≤ 100 nM |
| C=CC(=O)N1CCc2ccc(-c3c(-c4ccc(OCCCN(C)C)cc4)[nH]c4nccc(Cl)c34)cc21 [Example 71, 1-(6-(4-chloro-2-(4-(3-(dimethylamino)propoxy)phenyl)-1H-pyrrolo[2,3-b]pyridin-3-yl)indolin-1-yl)prop-2-en-1-one] | 100 to 500 nM | >99 % remaining after 50 min | ≤ 100 nM | ≤ 100 nM | ≤ 100 nM | 500 to 1000 nM | 500 to 1000 nM | 100 to 500 nM |
| C=CC(=O)Nc1cc(-c2c(-c3cccc(OCCN4CCCC4)c3)[nH]c3ncc(C(=O)OC(C)C)cc23)ccc1C [Example 170, isopropyl 3-(3-acrylamido-4-methylphenyl)-2-(3-(2-(pyrrolidin-1-yl)ethoxy)phenyl)-1H-pyrrolo[2,3-b]pyridine-5-carboxylate] | 100 to 500 nM | >99 % remaining after 50 min | ≤ 100 nM | ≤ 100 nM | ≤ 100 nM | 100 to 500 nM | 1000 to 100000 nM | 100 to 500 nM |
| C=CC(=O)Nc1cc(-c2c(-c3ccc(N4CCN(C)CC4)c(F)c3)[nH]c3ncc(C(=O)OC(C)C)cc23)ccc1C [Example 164, isopropyl 3-(3-acrylamido-4-methylphenyl)-2-(3-fluoro-4-(4-methylpiperazin-1-yl)phenyl)-1H-pyrrolo[2,3-b]pyridine-5-carboxylate] | 100 to 500 nM | >99 % remaining after 50 min | ≤ 100 nM | ≤ 100 nM | ≤ 100 nM | 100 to 500 nM | 1000 to 100000 nM | 100 to 500 nM |
| C=CC(=O)Nc1cc(-c2c(-c3ccc(N4CCN(CC)CC4)cc3)[nH]c3ncc(C(=O)OC(C)C)cc23)ccc1C [Example 157, isopropyl 3-(3-acrylamido-4-methylphenyl)-2-(4-(4-ethylpiperazin-1-yl)phenyl)-1H-pyrrolo[2,3-b]pyridine-5-carboxylate] | 100 to 500 nM | >99 % remaining after 50 min | ≤ 100 nM | ≤ 100 nM | ≤ 100 nM | 100 to 500 nM | 1000 to 100000 nM | 100 to 500 nM |
| C=CC(=O)Nc1cc(-c2c(-c3ccc(N4CCN(C(C)=O)CC4)cc3)[nH]c3nccc(OC)c23)ccc1C [Example 74, N-(5-(2-(4-(4-acetylpiperazin-1-yl)phenyl)-4-methoxy-1H-pyrrolo[2,3-b]pyridin-3-yl)-2-methylphenyl)acrylamide] | 500 to 1000 nM | 90 % remaining after 50 min | ≤ 100 nM | ≤ 100 nM | ≤ 100 nM | 100 to 500 nM | 500 to 1000 nM | ≤ 100 nM |

Source: patent US20220370440A1 (Lead Discovery Center GmbH, priority 2018, published 2022)
